From ChEMBL document CHEMBL1201862, “PubChem BioAssay data set” (2004) come the findings set out here.

SMILES strings stand for the structures.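 Following 48 hours of exposure in 96-well plates, responses at five concentrations were used to interpolate endpoints linearly. At the GI50, growth is halved.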 Calls of active or inactive are those of the source. Rule as the data show it: active = GI50 up to about 1.1 µM and inactive = higher.

Among the test systems are A549; COLO 205; HCT-116; HCT-15; KM12; LOX IMVI; NCI-H226; NCI-H23; NCI-H460; OVCAR-4; SF-268; SK-OV-3; SN12C; SNB-19; TK-10; UO-31; CAKI-1; OVCAR-5; SK-MEL-5.
What all share (assay): NCI anticancer screen, dose series, 48 h

With `CC12CC[C@H](O)C(C)(C)[C@H]1CC[C@](C)(O)C2COc1ccc2ccc(=O)oc2c1` (some centres not stated), the GI50 in the test with A549 was 81.7 µM (inactive); with COLO 205, > 100 µM (inactive); with HCT-116 it was 50.9 µM (inactive); in the test on HCT-15, greater than 100 µM; in the test with KM12, > 100 µM (inactive); in the test on LOX IMVI it was > 100 µM (inactive). Besides, the GI50 in the test with NCI-H226, with NCI-H23, in the test with NCI-H460, with OVCAR-4, in the test on SF-268 and with SK-OV-3 was > 100 µM (inactive) throughout. Further, the GI50 in the test on SN12C, in the test with SNB-19, in the test on TK-10 and in the test on UO-31 was > 100 µM (inactive) throughout.

With `CCOC(=O)C(=O)/C=C(\C)Nc1c(NC2OCC(OC(C)=O)C(OC(C)=O)C2OC(C)=O)nc(SC)[nH]c1=O` (configuration not stated), the GI50 was > 100 µM (inactive) with A549; > 100 µM (inactive) in the test with CAKI-1; > 100 µM (inactive) in the test on COLO 205; > 100 µM (inactive) with HCT-116; greater than 100 µM in the test with HCT-15; > 100 µM (inactive) in the test with KM12. The GI50 with LOX IMVI, in the test on NCI-H23, with NCI-H460, in the test on OVCAR-4, with OVCAR-5 and with SF-268 was > 100 µM (inactive) throughout. Further, the GI50 in the test with SK-MEL-5, in the test with SK-OV-3, in the test with SN12C, in the test on SNB-19, with TK-10 and with UO-31 was > 100 µM (inactive) throughout.

Turning to `O=C(O)CCN(CCCN(CCC(=O)O)CCC(=O)O)CCC(=O)O`, the GI50 in the test with A549 was > 100 µM (inactive); in the test with CAKI-1, > 100 µM (inactive); with COLO 205, > 100 µM (inactive); in the test on HCT-116 it was > 100 µM (inactive); in the test on HCT-15 it was greater than 100 µM; in the test on KM12, > 100 µM (inactive). In addition, the GI50 in the test with LOX IMVI, with NCI-H23, in the test on NCI-H460, with OVCAR-4, with OVCAR-5 and in the test with SF-268 was > 100 µM (inactive) throughout. The GI50 with SK-MEL-5, in the test with SK-OV-3, with SN12C and in the test on TK-10 was > 100 µM (inactive) each time.

`C[N+](C)(C)CC(=O)N/N=C(/Cc1cc(=O)oc2cc(O)ccc12)C(=O)Nc1ccc(Cl)cc1`: the GI50 with A549, in the test with CAKI-1, in the test with COLO 205, with HCT-116, in the test with KM12 and in the test on NCI-H23 was > 100 µM (inactive) each time. The GI50 in the test on NCI-H460, in the test with OVCAR-4, in the test with OVCAR-5, with SF-268, in the test on SK-MEL-5 and with SK-OV-3 was > 100 µM (inactive) in each case. Besides, the GI50 in the test with SN12C, with SNB-19, in the test on TK-10 and in the test with UO-31 was > 100 µM (inactive) in each case.

`CC(C)N(C(=O)C12C3C4C1C1C2C3C41C(O)C(C)(C)C)C(C)C` (configuration not stated): the GI50 is > 50 µM (inactive) with A549; > 50 µM (inactive) with CAKI-1; > 50 µM (inactive) in the test on COLO 205; > 50 µM (inactive) in the test with HCT-116; greater than 50 µM in the test with HCT-15; > 50 µM (inactive) in the test with SF-268. Also, the GI50 in the test with SK-MEL-5, in the test on SK-OV-3, in the test with SN12C, with SNB-19 and with UO-31 was > 50 µM (inactive) each time.
